# According to patent publication US9718790B2, “Triazine derivative and pharmaceutical composition having an analgesic activity comprising the same” (SHIONOGI & CO., LTD., priority 2010, dated 2017):
# Target: human P2X3 receptor (Homo sapiens (Human), UniProt P56373)
# Test: Evaluation of human P2X3 receptor inhibitory activity (Fluo-3 calcium fluorescence, FDSS 3000, ATP stimulation);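 also: stimulus was 50 nM ATP with fluorescence followed for 3 min, and the response per well was peak post-ATP fluorescence divided by the reading at measurement start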
# Format: cell-based
# Conditions: C6BU-1 cells stably expressing human P2X3 receptor
# Chain of human P2X3 receptor (P56373 whole entry): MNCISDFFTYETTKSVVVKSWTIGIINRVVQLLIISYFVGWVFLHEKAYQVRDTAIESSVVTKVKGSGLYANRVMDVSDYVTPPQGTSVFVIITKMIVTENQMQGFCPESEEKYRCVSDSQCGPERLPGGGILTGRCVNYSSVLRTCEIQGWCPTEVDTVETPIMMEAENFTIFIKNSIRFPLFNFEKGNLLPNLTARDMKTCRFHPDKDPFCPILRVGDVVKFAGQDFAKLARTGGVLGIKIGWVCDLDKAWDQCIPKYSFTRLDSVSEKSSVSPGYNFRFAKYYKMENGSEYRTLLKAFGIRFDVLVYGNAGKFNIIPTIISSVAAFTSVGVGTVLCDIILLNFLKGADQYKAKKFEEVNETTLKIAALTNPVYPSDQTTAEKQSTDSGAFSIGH
row,SMILES,IC50
1,Cc1ccc(Cn2c(=O)n(CCCC(=O)O)c(=O)[nH]/c2=N\c2ccc(Oc3ccncc3)cc2)cc1 [Compound I-1243],0.012 µM
2,CNC(=O)CCn1c(=O)[nH]/c(=N\c2ccc(O[C@H](C)C(F)(F)F)cc2)n(Cc2ccc(Cl)cc2)c1=O [Compound I-1957],0.022 µM
3,Cc1ccc(Cn2c(=O)n(C)c(=O)[nH]/c2=N\c2ccc(Oc3cncc(C(=O)O)c3)cc2)cc1 [Compound I-2121],0.021 µM
4,CCOC(=O)CCn1c(=O)[nH]/c(=N\c2ccc(Oc3cccnc3)cc2)n(Cc2ccc(C)cc2)c1=O [Compound I-1229],0.004 µM
5,Cc1cc(/N=c2\[nH]c(=O)n(Cc3cccnc3OCCO)c(=O)n2Cc2ccc(Cl)cc2)ccc1OC(C)C [Compound I-0715],0.013 µM
6,"COC(=O)[C@H](Cn1c(=O)[nH]/c(=N\c2ccc(OC(C)C)c(C)c2)n(Cc2ccc(Cl)cc2)c1=O)OC [Compound I-0806, (S)-1-(4-chlorobenzyl)-6-(3-mehyl-4-isopropoxyphenylimino)-3-(2-methoxycarbonyl-2-methoxy-ethyl)-1,3,5-triazinane-2,4-dion]",0.012 µM
7,COC(=O)NCCCn1c(=O)[nH]/c(=N\c2ccc(OC(C)C)c(F)c2)n(Cc2ccc(Cl)cc2)c1=O [Compound I-0608],0.006 µM
8,CCn1c(=O)[nH]/c(=N\c2ccc(Oc3ccnc(C(=O)NC)c3)cc2)n(Cc2ccc(F)cc2)c1=O [Compound I-2110],0.012 µM
9,CCn1c(=O)[nH]/c(=N\c2ccc(Oc3ccnc(C(=O)O)c3)cc2)n(Cc2ccc(Cl)cn2)c1=O [Compound I-2211],0.014 µM

# Same assay, conditions: C6BU-1 cells stably expressing human P2X3 receptor, Fluo-3 fluorescence, FDSS 3000
row,SMILES,IC50
1,CCn1c(=O)[nH]/c(=N\c2ccc(Oc3cccc(C(=O)OC)c3)cc2)n(Cc2ccc(Cl)cc2)c1=O [Compound I-1880],0.015 µM
2,COC(=O)[C@@H](C)Cn1c(=O)[nH]/c(=N\c2ccc(OC(C)C)c(OC(C)C)c2)n(Cc2ccc(C)cc2)c1=O [Compound I-1130],0.133 µM
3,COC(=O)[C@@H](C)Cn1c(=O)[nH]/c(=N\c2ccc(OC3CC3)c(Cl)c2)n(Cc2ccc(C)cc2)c1=O [Compound I-1605],0.018 µM
4,CC(=O)OCC(CO)CCn1c(=O)[nH]/c(=N\c2ccc3nc(C)sc3c2)n(Cc2ccc(Cl)cc2)c1=O (stereo not shown) [Compound I-1851],0.004 µM
5,CCc1nc2ccc(/N=c3\[nH]c(=O)n(CC(C)(C)C(=O)O)c(=O)n3Cc3ccc(Cl)cc3)cc2s1 [Compound I-1578],0.006 µM
6,C[C@@H](Cn1c(=O)[nH]/c(=N\c2ccc(N3CCCCC3)cc2)n(Cc2ccc(Cl)cc2)c1=O)C(=O)O [Compound I-0962],0.031 µM
7,CC(C)Oc1ccc(/N=c2\[nH]c(=O)n(CCC(=O)O)c(=O)n2CC2C[C@H]3CC[C@@H]2C3)cc1F (stereo partly shown) [Compound I-1862],0.552 µM
8,CCOC(=O)C1(Cn2c(=O)[nH]/c(=N\c3ccc(OCC4CC4)cc3)n(Cc3ccc(C)cc3)c2=O)CC1 [Compound I-0913],0.009 µM

# Same assay, conditions: human P2X3 receptor, Test Example 1
row,SMILES,IC50
1,CCOCc1ccc(/N=c2\[nH]c(=O)n(C[C@H](C)C(=O)OC)c(=O)n2Cc2ccc(C)cc2)cc1Cl [Compound I-1498],0.022 µM
2,O=c1[nH]/c(=N\c2ccc(Oc3cccc(F)n3)cc2)n(Cc2ccc(Cl)cc2)c(=O)n1CCO [Compound I-2516],0.009 µM
3,O=c1[nH]/c(=N\c2ccc(Oc3noc(C4CC4)n3)cc2)n(Cc2ccc(Cl)cc2)c(=O)n1C[C@H](O)CO [Compound I-2596],0.051 µM
4,CCn1c(=O)[nH]/c(=N\c2ccc(Oc3cccc(/C=C/C(=O)O)c3)cc2)n(Cc2ccc(C)cc2)c1=O [Compound I-2344],0.003 µM
5,COC(=O)c1cncc(Oc2ccc(/N=c3\[nH]c(=O)n(C4CC4)c(=O)n3Cc3ccc(Cl)cc3)cc2)c1 [Compound I-2308],0.003 µM
6,Cc1cc(Oc2ccc(/N=c3\[nH]c(=O)n(C[C@@H]4COC(C)(C)O4)c(=O)n3Cc3ccc(Cl)cc3)cc2)no1 [Compound I-2228],0.005 µM
7,O=c1[nH]/c(=N\c2ccc(Oc3nccs3)cc2)n(Cc2ccc(Cl)cc2)c(=O)n1C[C@H](O)CO [Compound I-2294],0.005 µM
8,CCn1c(=O)[nH]/c(=N\c2ccc(Oc3ncc(C(=O)O)cn3)cc2)n(Cc2ccc(Cl)cc2)c1=O [Compound I-2323],0.016 µM
